Data set [1] concerns H3K27me3 in HS-SY-II cells. Kind of data set: H3K27 methylation alterations, ELISA of extracted histones. As to conditions: 96 hours treatment. Type of data set: cell-based, human. The protocol:
(§1) HS-SY-II and SW982 cells were treated with either DMSO or Compound A starting at 40 nmol/L and decreasing in fourfold dilutions for 96 hours. Cells were washed by ice cold PBS, harvested by cell scraper, and lysed with 100 μL of nuclear extraction buffer (10 mM Tris-HCl, 10 mM MgCl2, 25 mM KCl, 1% Triton X-100, 8.6% Sucrose, plus × Halt Protease inhibitor cocktail (1861281, Thermo Scientific). Nuclei were collected by centrifugation at 600 g for 5 minutes at 4° C. and washed once with ice cold PBS. Supernatant was removed and histones extracted for one hour with 100 μL of 0.4 N cold sulfuric acid. Extracts were clarified by centrifugation at 10,000 g for 10 minutes at 4° C. and transferred to a fresh microcentrifuge tube containing 1 mL of ice cold acetone. Histones were precipitated at −20° C. for overnight, pelleted by centrifugation at 10,000 g for 10 minutes and resuspended in 100 μl of water. Histones were quantified using the BCA protein assay (23225, Pierce). The diluted histones were coated on Immulon 4HBX plates (3855, Thermo Scientific) overnight and ELISA was performed. […] Subsequently, the developed colors in the wells were measured using a plate spectrophotometer (SpectraMax 250, Molecular Devices) at 450 nm (reference wavelength 650 nm).
(§2) The range of ICso values (two independent experiments), shown in FIG. 6B, were determined by GraphPad Prism (GraphPad Software).
(In general: ELISA stands for enzyme-linked immunosorbent assay.)

In data set [2] the test system is H3K27me3 in SW982 cells. Described as above. Type of data set: cell-based, human. To be noted: 96 hours treatment. The protocol:
as §1, §2

Data set [3] in a line: PK values in HS-SY-II xenograft model (plasma concentration, LC/MS/MS). To be noted: oral twice daily for 7 days; 5 minutes before and 3 hours after the last dose. It is filed as in vivo, mice. The protocol:
HS-SY-II cells were harvested during mid-log phase growth, and resuspended in Hank balanced salt solution with 50% Matrigel (BD Biosciences). Balb/C-nu mice (Charles River Laboratories Japan) received 1×10^7 cells (0.1 mL cell suspension) subcutaneously in the right flank. Mice carrying tumors of approximately 200 mm^3 (31 days after injection) were sorted into treatment groups with similar mean tumor volumes. Compound A or vehicle (0.5% MC+0.1% Tween-80 in water) was administered at the indicated doses on twice a day for 7 days by oral gavage. Each dose was delivered in a volume of 0.2 mL/20 g mouse (10 mL/kg), and adjusted for the last recorded weight of individual animals. Peripheral blood samples were collected at approximately 5 minutes before and 3 hours after the last dose from Compound A-treated mice. After obtaining plasma samples by centrifugation, the analysis for plasma concentrations of Compound A was conducted by the liquid chromatography-tandem mass spectrometry (LC/MS/MS) method. The UPLC system (Acquity, Waters) equipped with a mass spectrometer (Quattro premier, MICROMASS) was used for quantification of Compound A. The concentrations are plotted (n=5) in FIG. 7A. Each bar represents a mean of plasma concentration in each group.

Data set [4] relates to HS-SY-II cells. The data set is described as follows: Gene expression changes in vitro (RT-PCR, normalized to GAPDH). It is filed as cell-based, human. As to conditions: HS-SY-II in vitro culture. The protocol: ATF3, EGR1, CDKN2A and GAPDH expression were analyzed by using the TaqMan Gene Expression Assays (Life technologies, 4331182) and the TaqMan Probes (Hs00231069_ml, Hs00152928_ml, Hs00233365_ml, and Hs99999905_ml, respectively).

Data set [5] deals with SW982 cells. Kind of data set: Adherent cell line 14-day long-term proliferation assay (CellTiter-Glo). It is filed as cell-based, human. The protocol: (§3) 96-well plating for 7 day assay: For each adherent cell line, plated cells in a volume of 100 μL in 96-well plates, to be treated in triplicate, either in the evening (to treat with compound the following day) or in morning (to treat with compound in the evening), to allow cells to attach to plates before compound treatment.
(§4) 6-well plates to be split for 7-14 day assay: Plated 2mL of cells at the correct density in each well of the 6-well plate. Calculated the correct density from the 96-well plate growth curve by multiplying the 96-well density by 30. The factor 30 came from growth area of the 6-well plate divided by the growth area of the 96-well plate (9.5cm^2/0.32cm^2=29.7, rounded up to 30), which corresponds to 30-fold more surface area in a 6-well vs. a 96-well plate.
(§5) Day 0: Treated with compound or DMSO by removing media and adding back either […] (for 96-well plate) or 2 mL (for 6-well plate) media with the correct dilutions of compound/DMSO. Table 1 includes an example of 96-well plate map. Plates were incubated for 96 hours.
(§6) Read one 96-well plate with CellTiter-Glo®, for a Day 0 reading (media change not necessary for this plate).
(§7) Day 4: Read one 96-well plate with CellTiter-Glo® for a Day 4 reading (media change not necessary for this plate before reading). Replaced media with fresh media containing compound on Day 4 in 96-well plates and 6-well plates.
(§8) Day 7: read final 96-well plate with CellTiter-Glo®.
(§9) Counted individual wells of 6-well plates, and replated cells to initial plating density in 96-well plates, as described above.
(§10) Repeated steps for Days 0-7 for Days 7-14 of the proliferation assay.
(§11) Particularly, approximately 12 hours before compound treatment, HS-SY-II or SW982 cells were plated at the density of 24,000 cells/well and 7,500 cells/well, respectively in 6-well plates. On day 0, cells were treated with either DMSO or compound starting at 10 μmol/L and decreasing in fourfold dilutions. On day 7, the cells in 6-well plates were trypsinized, counted by TC10 automated cell counter (Bio-Rad, Richmond, Calif.) and replated at the density of 800 cells/well and 250 cells/well for HS-SY-II and SW982, respectively in 96-well plates in triplicate. The cells were allowed to adhere to the plate overnight, and treated with either DMSO or compound as on Day 0. On days 0, 7, 11, and 14, cell viability was determined by CellTiter-Glo® Luminescent Cell Viability Assay (Promega) with EnVision 2103 Multilabel Reader (Perkin-Elmer, Wellesley, Mass.). Compound/media was changed with new one on Day 4 and 11. The ratios of the measured values on Days 7, 11, and 14 to that of day 7 were used to plot proliferation from day 7 to day 14, and to calculate the IC50 values on Day 14. […]
A general note: ATP-based viability assays read luminescence as a measure of living cells.

Data set [6] relates to HS-SY-II cells. The description is as above. It is filed as cell-based, human. The protocol:
as §3, §4, §5, §6, §7, §8, §9, §10, §11

SMILES strings stand for the structures. Entries after “also recorded” stand apart in the source; their conditions may differ.

As to `CCN(c1cc(-c2ccc(CN3CCOCC3)cc2)cc(C(=O)NCc2c(C)cc(C)[nH]c2=O)c1C)C1CCOCC1` [Compound A], the “ratio of H3K27me3/total H3 (ratio to control)” value in data set [1] and in data set [2] was “decreased” in each case. Further, the plasma concentrations entry in data set [3] is on record as “Dose dependent exposure”. For the same compound, the “ATF3 and EGR1 expression” value in data set [4] is on record as “upregulated”. Besides, the CDKN2A expression result in data set [4] was “Dose- and time-dependent CDKN2A upregulation”. Moreover, the “sensitivity (cell proliferation / viability)” value is reported as “did not; also recorded: not sensitive” in data set [5] and “high sensitivity; also recorded: highly sensitive” in data set [6].
